Measurements reported in patent US4436662A, “Pyrrolo[3,4-d][2]benzazepinones” (Hoffmann-La Roche Inc., priority 1983, dated 1984).
Like-named read-outs stand apart in the source and are kept apart here.

Assays:
[1] = tested on: convulsions (metrazol iv); test: Intravenous Antimetrazol Test; format: in vivo, Male CF-1 mice; conditions: Mus musculus, po, 1 h
Method: Intravenous Antimetrazol Test
Brief Description: Male CF-1 mice, 45-54 days old, housed in facilities for one week and food-deprived for about 24 hours, are used in this test. The test compound, dispersed in 5% acacia, is administered orally to three mice at 1/10 the dose at which lethality occurred in the TSP testing. One hour later, metrazol is administered intravenously at 70 mg/kg (convulsant dose 100 mg/kg) and animals are observed 30 seconds for protection against convulsions. If the compound is active orally, 3 animals are used per dose level.
Measurements Made: The number of animals protected from convulsions.
Calculations: If the drug is active and three mice are used per dose level, the approximate ED50 is calculated by the method of Miller and Tainter (Proc. Soc. Exp. Biol. Med. 57:261, 1944). If six or more mice are used per dose level, the ED50 values and 95% fiducial limits are calculated using a computer program based on the method of D. J. Finney ("Probit Analysis", Cambridge University Press, Cambridge, England, 1971).

[2] = biological target: 3H-Diazepam binding, rat brain cortical fragments; test: 3H-Diazepam Binding Assay; conditions: read-out: IC50 (nM), concentration required to inhibit binding by 50%, Tris buffer, assayed in triplicate
Method: Brief-Description: Rat brain cortical fragments are prepared and the binding procedures performed as described by Mohler and Okada (Life Sciences, 20, 2101, 1977) except that Tris buffer is substituted for Krebs buffer. Drugs are assayed in triplicate.
Measurements Made: Radioactivity is measured by liquid scintillation counting.

[3] = LD50 (po) acute lethality; set-up: species or system mice; conditions: mouse, in vivo
[4] = standard drugs, read-out: ED50 (95% Fiducial Limits)
[5] = 1 hour before metrazol 70 mg/kg iv, 50% of animals protected from convulsive seizures, test compounds, read-out: ED50
[6] = mice, printed in binding results table
[7] = printed in antimetrazol results table

SMILES: CCC1(c2ccccc2)C(=O)NC(=O)NC1=O [Sodium Phenobarbital]
- ED50 [1, 4]: 19 mg/kg

SMILES: CC1NC(=O)C2=C1c1ccc(Cl)cc1C(c1ccccc1Cl)=NC2 (centres unmarked) [8-Chloro-6-(2-chlorophenyl)-1,4-dihydro-1-methylpyrrolo[3,4-d][2]benzazepin-3(2H)-one]
- ED50 [1, 5]: 0.08 mg/kg
- IC50 [2]: 1 nM
- LD50 [3, 6]: > 1000 mg/kg
- LD50 [3, 7]: > 1000 mg/kg

SMILES: CN1CC2=C(CN=C(c3ccccc3Cl)c3cc(Cl)ccc32)C1=O [8-chloro-6-(2-chlorophenyl)-1,4-dihydro-2-methylpyrrolo[3,4-d][2]benzazepin-3(2H)-one]
- ED50 [1, 5]: 0.08 mg/kg
- LD50 [3, 6]: 800 mg/kg
- LD50 [3, 7]: 800 mg/kg

SMILES: CNC1=Nc2ccc(Cl)cc2C(c2ccccc2)=[N+]([O-])C1 [Chlordiazepoxide]
- ED50 [1, 4]: 3.9 mg/kg

SMILES: CCN(CC)CCN1C(=O)CN=C(c2ccccc2F)c2cc(Cl)ccc21 [Flurazepam, reference compound]
- IC50 [2]: 15.6 nM

SMILES: CN1C(=O)CN=C(c2ccccc2)c2cc(Cl)ccc21 [Diazepam]
- ED50 [1, 4]: 1 mg/kg
